Data published in ChEMBL document CHEMBL1144764, “A molecular modeling study of the interaction of 2'-fluoro-substituted analogues of dUMP/FdUMP with thymidylate synthase” (Bioorg Med Chem Lett, 2008).

Molecular target: Thymidylate synthase (Homo sapiens, UniProt P04818)
Sequence (P04818 whole entry): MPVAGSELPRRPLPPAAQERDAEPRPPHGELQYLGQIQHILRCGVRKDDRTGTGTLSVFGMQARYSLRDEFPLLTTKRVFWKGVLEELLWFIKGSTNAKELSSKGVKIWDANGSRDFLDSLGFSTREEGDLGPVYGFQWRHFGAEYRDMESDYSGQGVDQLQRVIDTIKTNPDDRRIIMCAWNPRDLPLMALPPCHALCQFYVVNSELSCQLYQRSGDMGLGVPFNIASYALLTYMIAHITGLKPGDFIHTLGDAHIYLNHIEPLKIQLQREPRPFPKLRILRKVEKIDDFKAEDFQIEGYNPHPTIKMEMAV
Description: Binding affinity to human recombinant thymidylate synthase

Ki [µM]	SMILES
433	O=c1ccn([C@@H]2O[C@H](COP(=O)(O)O)[C@@H](O)C2(F)F)c(=O)[nH]1
10.3	O=c1ccn([C@@H]2O[C@H](COP(=O)(O)O)[C@@H](O)[C@@H]2F)c(=O)[nH]1
